In one series the test system is AR-specific mRNA. The series is described as follows: AR mRNA silencing in PASC1 cells, qRT-PCR. It is filed as cell-based, rat. To be noted: 48 h siRNA. The method, then:
(§1) Primers were designed with http://www.ncbi.nlm.nih.gov/tools/primer-blast (Accessed on 28 February 2022) and were all intron-spanning. Total RNA was isolated from PASC1 with the RNeasy Mini-Kit (Qiagen, Hilden, Germany) and subjected to DNase I treatment as described by the manufacturer. The Reverse Transcription-System first strand cDNA synthesis kit (Invitrogen, Darmstadt, Germany) was used for cDNA synthesis, as recommended. Quantitative real-time PCR (qRT-PCR) amplification was performed in duplicate with iQ TM SYBR Green Super-mix (Bio-Rad; Munich; Germany) on the iCycler iQ System (Bio-Rad). After an initial heating at 94 °C for 5 min, 40 amplification cycles were performed consisting of an initial denaturation of the DNA double strands at 94 °C for 14 s, an annealing phase of the primers at 59 °C for 30 s, and extension of the primers for 15 s at 72 °C. A finalizing extension at 72 °C was carried out for 10 min. Gene expression was measured after reaching the ct value and calculated using the Delta–Delta Ct method. Detection of GAPDH-specific mRNA/cDNA served as normalization of the quantification. Oligonucleotides used in the qRT-PCR, their annealing position, and the expected size of the amplificates are listed in Supplementary Table S2. […]
Background: Real-time PCR tracks product formation cycle by cycle.

The test system of a further series is AR protein. The series is described as follows: AR protein silencing in PASC1 cells, immunofluorescence. It is filed as cell-based, rat. To be noted: 48 h siRNA. The method, then: PASC1 cells were plated at a density of 3.0 × 10^4 on 24-well plates (1 mL/well) and incubated 48 h at 37 °C and 5% CO2 until a confluence of roughly 80% was reached. Cells were rinsed with DPBS and fixed with 100% ice-cold methanol (Roth, Karlsruhe, Germany) on ice for 10 min directly or after stimulation with vehicle, 10 nM testosterone, or 1 µM P1 for 24 h. Cells were then washed with DPBS three times for 5 min, and then incubated in blocking solution (PBS with 3% BSA and 0.3% Triton X-100, both from Sigma-Aldrich) for 1 h at room temperature. The blocking solution was replaced by fresh blocking solution containing the primary antibodies for detection of either AR, p-Erk1/2, p-CREB/p-ATF-1, claudin-1 (Cldn-1), or zonula occludens-1 (ZO-1) (Supplementary Table S1) and incubated overnight at 4 °C. […] After washing 3 times with DPBS, images were obtained using an inverse Olympus IX81 microscope equipped with a fluorescence system. A total of 30 cells from 3 independent experiments (30 × 3) localized closest to the diagonals of the square optical field were selected and the manually surrounded green fluorescence was quantified by ImageJ (available at http://rsbweb.nih.gov/ij/, last accessed 28 February 2022) following the protocol of the software provider. The data obtained were analyzed by GraphPad Prism5 (GraphPad Software, Inc., La Jolla, CA, USA). […]

Series [1] concerns androgen binding site of ZIP9. Briefly: T-BSA-FITC plasma membrane labeling of PASC1 cells and its displacement. As to conditions: PASC1 cells, n = 28.
Procedure: PASC1 cells were cultured as described above in 24-well plates at a density of 3 × 10^3 cells/well until reaching a confluence of approximately 80%. The cells were then treated with either 10 nM testosterone or 1 µM of P1 for 1 h. Controls received only the testosterone vehicle (ethanol). […] The medium was then removed by aspiration. In order to label nuclei, cells were fixed at room temperature with 3.7% formaldehyde that contained 20 ng of 4,6-diamino-2-phenylindole (DAPI). After 15 min, the formaldehyde/DAPI solution was removed by aspiration. Cells were washed with Dulbecco’s phosphate-buffered saline (DPBS, Gibco, Schwerte, Germany) and then overlayed with 400 µL PBS before imaging. Images were taken by an inverse Olympus IX81 microscope (Olympus, Hamburg, Germany).
For another series, the system named is ZIP9-specific mRNA. The series is described as follows: ZIP9 mRNA silencing in PASC1 cells, qRT-PCR. In kind it is cell-based, rat. As to conditions: 48 h siRNA. As to the method:
as §1

The test system of another series is ZIP9 protein. Briefly: ZIP9 protein silencing in PASC1 cells, immunofluorescence. As to conditions: 48 h siRNA. It is filed as cell-based, rat.
In series [2] the test system is androgen binding site ZIP9 of the Sertoli cell line 93RS2. Also on record: method as in PMID 35053053, PMID 35053017. To be noted: 93RS2 cells; cited from earlier work.
Series [3] concerns androgen binding site ZIP9 of L6 myoblasts. To be noted: cited from earlier work.

For the substance “AR-siRNA: 5′CCGGAAAUGUUAUGAAGCAtt3′ plus 5′ UGCUUCAUAACAUUUCCGGag 3′ (AR-siRNA for AR silencing) (chain 1 CCGGAAAUGUUAUGAAGCATT; chain 2 UGCUUCAUAACAUUUCCGGAG; Commercial Silencer Select siRNA, lowercase 3' overhang letters not explained, further chemistry not given here)”, the “Expression of AR-specific mRNA” value with AR-specific mRNA is on record as “greatly suppressed”. Further, the “Expression of AR protein” value in the series with AR protein is given as “also prevented”.
In the case of “BSA-FITC: BSA-FITC (lacking testosterone)”, in series [1] (10 µM BSA-FITC, pH 7.2, 20 min, room temperature), the “Membrane labeling by BSA-FITC (non-specific binding)” value is “failed to label the membrane structure”.
As to “ZIP9-directed siRNA: 5′ GGAUUAAGUAAGAGCAGUAtt3′ and 5′ UACUGCUCUUACUUAAUCCta 3′ (ZIP9-siRNA for ZIP9 silencing) (chain 1 GGAUUAAGUAAGAGCAGUATT; chain 2 UACUGCUCUUACUUAAUCCTA; Commercial Silencer Select siRNA, lowercase 3' overhang letters not explained, further chemistry not given here)”, in the series with ZIP9-specific mRNA, the “Expression of ZIP9 mRNA” value is listed as “similarly successful in preventing expression”. Besides, the “Expression of ZIP9 protein” value in the series on ZIP9 protein is reported as “similarly successful in preventing expression”.
As for “testosterone 3-(O-carboxymethyl)-oxime:bovine serum albumin-fluorescein isothiocyanate conjugate [T-BSA-FITC]”, the “Labeling of androgen binding site of ZIP9” value in series [2] was “suitable to label the androgen binding site ZIP9 of the Sertoli cell line 93RS2”; in series [3], “suitable to label the androgen binding site ZIP9 of the Sertoli cell line 93RS2 and also of L6 myoblasts”. Also, the Membrane labeling entry in series [1] (10 µM T-BSA-FITC, pH 7.2, 20 min, room temperature, nc-siRNA treated, fluorescence) is listed as “label the surface of PASC1 cells”. Moreover, the “Membrane labeling after ZIP9 knockdown” value in series [1] (ZIP9 expression suppressed by siRNA, 10 µM T-BSA-FITC) is “suppression of its expression by siRNA prevented the binding of T-BSA-FITC”.
